Measurements published in patent US7439386B2, “Therapeutic substituted cyclopentanones” (Allergan, Inc., priority 2005, dated 2008).

Experiments:
EP2 receptor = target: T1, EP2 receptor (Homo sapiens, UniProt P43116); assay: Radioligand binding, EP2 receptor; settings: [3H]PGE2 competition, HEK-293 membranes
T1 construct: expressed in transfected cells; membrane fraction
Experimental: (§1) HEK-293 cells stably expressing the human or feline FP receptor, or EP1, EP2, or EP4 receptors are washed with TME buffer, scraped from the bottom of the flasks, and homogenized for 30 sec using a Brinkman PT 10/35 polytron. TME buffer is added to achieve a final 40 ml volume in the centrifuge tubes (the composition of TME is 100 mM TRIS base, 20 mM MgCl2, […]; 10N HCl is added to achieve a pH of 7.4).
(§2) The cell homogenate is centrifuged at 19000 r.p.m. for 20 min at 4° C. using a Beckman Ti-60 rotor. The resultant pellet is resuspended in TME buffer to give a final 1 mg/ml protein concentration, as determined by Biorad assay. Radioligand binding competition assays vs. [^3H—]17 phenyl PGF2α (5 nM) are performed in a 100 μl volume for 60 min. Binding reactions are started by adding plasma membrane fraction. The reaction is terminated by the addition of 4 ml ice-cold TRIS-HCl buffer and rapid filtration through glass fiber GF/B filters using a Brandel cell harvester. The filters are washed 3 times with ice-cold buffer and oven dried for one hour. Non-specific binding is determined with 10 uM unlabeled 17 phenyl PGF2α.
(§3) [^3H—] PGE2 (5 nM; specific activity 180 Ci mmol) is used as the radioligand for EP receptors. Binding studies employing EP1, EP2, EP3, EP4 are performed in duplicate in at least three separate experiments. A 200 μl assay volume is used. Incubations are for 60 min at 25° C. and are terminated by the addition of 4 ml of ice-cold 50 mM TRIS-HCl, followed by rapid filtration through Whatman GF/B filters and three additional 4 ml washes in a cell harvester (Brandel). Non-specific binding is determined with 10^−5M of unlabeled PGE2.

EP4 receptor = target: T2, EP4 receptor (Homo sapiens, UniProt P35408); assay: Radioligand binding, EP4 receptor; settings: [3H]PGE2 competition, HEK-293 membranes
T2 construct: expressed in transfected cells; membrane fraction
T2 sequence (P35408 whole entry): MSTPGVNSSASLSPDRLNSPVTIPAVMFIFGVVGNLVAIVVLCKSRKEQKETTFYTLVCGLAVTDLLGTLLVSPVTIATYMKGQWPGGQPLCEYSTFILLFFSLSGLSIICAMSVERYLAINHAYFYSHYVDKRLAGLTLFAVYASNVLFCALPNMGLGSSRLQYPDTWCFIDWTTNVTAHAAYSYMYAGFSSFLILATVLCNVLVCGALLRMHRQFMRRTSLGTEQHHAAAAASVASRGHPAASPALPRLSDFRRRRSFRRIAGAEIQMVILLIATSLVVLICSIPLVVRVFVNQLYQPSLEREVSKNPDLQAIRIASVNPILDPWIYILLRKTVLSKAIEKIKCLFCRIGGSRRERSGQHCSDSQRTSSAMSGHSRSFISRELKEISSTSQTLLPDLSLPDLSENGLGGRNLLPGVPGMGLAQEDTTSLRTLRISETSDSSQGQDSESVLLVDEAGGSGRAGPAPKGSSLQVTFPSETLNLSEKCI
Experimental: as §1, §2, §3

hEP4/Gqs5 = target: T3, hEP4/Gqs5 (Homo sapiens, UniProt P35408); assay: FLIPR calcium signal, hEP4/Gqs5; assay type: cell-based; settings: HEK-293(EBNA) cells, read-out: EP4 Ca2+ EC50
T3 construct: expressed in transfected cells
T3 sequence (P35408 whole entry): as above
Experimental: (§4) HEK-293(EBNA) cells, stably expressing one type or subtype of recombinant human prostaglandin receptors (prostaglandin receptors expressed: hDP/Gqs5; hEP1; hEP2/Gqs5; hEP3A/Gqi5; hEP4/Gqs5; hFP; hIP; hTP), are cultured in 100 mm culture dishes in high-glucose DMEM medium containing 10% fetal bovine serum, 2 mM 1-glutamine, 250 μg/ml geneticin (G418) and 200 μg/ml hygromycin B as selection markers, and 100 units/ml penicillin G, 100 μg/ml streptomycin and 0.25 μg/ml amphotericin B.
(§5) Cells are seeded at a density of 5×10^4 cells per well in Biocoat® Poly-D-lysine-coated black-wall, clear-bottom 96-well plates (Becton-Dickinson) and allowed to attach overnight in an incubator at 37° C. Cells are then washed two times with HBSS-HEPES buffer (Hanks Balanced Salt Solution without bicarbonate and phenol red, 20 mM HEPES, pH 7.4) using a Denley Cellwash plate washer (Labsystems). After 45 minutes of dye-loading in the dark, using the calcium-sensitive dye Fluo-4 AM at a final concentration of 2 μM, plates are washed four times with HBSS-HEPES buffer to remove excess dye leaving 100 μl in each well. Plates are re-equilibrated to 37° C. for a few minutes.
(§6) Cells are excited with an Argon laser at 488 nm, and emission is measured through a 510-570 nm bandwidth emission filter (FLIPR™, Molecular Devices, Sunnyvale, Calif.). Drug solution is added in a 50 μl volume to each well to give the desired final concentration. The peak increase in fluorescence intensity is recorded for each well. On each plate, four wells each serve as negative (HBSS-HEPES buffer) and positive controls (standard agonists: BW245C (hDP); PGE2 (hEP1; hEP2/Gqs5; hEP3A/Gqi5; hEP4/Gqs5); PGF2α (hFP); carbacyclin ([…]); U-46619 (hTP), depending on receptor). The peak fluorescence change in each drug-containing well is then expressed relative to the controls.
Compounds are tested in a high-throughput (HTS) or concentration-response (CoRe) format. In the HTS format, forty-four compounds per plate are examined in duplicates at a concentration of 10^−5 M. To generate concentration-response curves, four compounds per plate are tested in duplicates in a concentration range between 10^−5 and 10^−11 M. The duplicate values are averaged. In either, HTS or CoRe format each compound is tested on at least 3 separate plates using cells from different passages to give an n≧3.

hEP3A/Gqi5 = target: T4, hEP3A/Gqi5 (Homo sapiens, UniProt P43115); assay: FLIPR calcium signal, hEP3A/Gqi5; assay type: cell-based; settings: HEK-293(EBNA) cells, read-out: OTHER RECEPTORS Ca2+ EC50: EP3
T4 construct: expressed in transfected cells
T4 sequence (P43115 1-390): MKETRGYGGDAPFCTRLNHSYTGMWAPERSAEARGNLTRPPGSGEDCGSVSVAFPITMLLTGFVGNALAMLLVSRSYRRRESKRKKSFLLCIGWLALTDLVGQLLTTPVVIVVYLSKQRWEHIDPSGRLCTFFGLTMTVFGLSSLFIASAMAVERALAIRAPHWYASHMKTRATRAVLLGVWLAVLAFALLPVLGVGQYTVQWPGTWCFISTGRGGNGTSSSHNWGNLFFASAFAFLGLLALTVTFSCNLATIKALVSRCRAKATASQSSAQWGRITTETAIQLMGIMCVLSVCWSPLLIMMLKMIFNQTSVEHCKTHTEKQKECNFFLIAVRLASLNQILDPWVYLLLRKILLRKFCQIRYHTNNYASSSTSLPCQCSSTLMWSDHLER
Experimental: as §4, §5, §6
(§7) Compounds are tested in a high-throughput (HTS) or concentration-response (CoRe) format. […]

hEP2/Gqs5 = target: T5, hEP2/Gqs5 (Homo sapiens, UniProt P43116); assay: FLIPR calcium signal, hEP2/Gqs5; assay type: cell-based; settings: HEK-293(EBNA) cells, read-out: EP2 Ca2+ EC50
T5 construct: expressed in transfected cells
T5 sequence (P43116 whole entry): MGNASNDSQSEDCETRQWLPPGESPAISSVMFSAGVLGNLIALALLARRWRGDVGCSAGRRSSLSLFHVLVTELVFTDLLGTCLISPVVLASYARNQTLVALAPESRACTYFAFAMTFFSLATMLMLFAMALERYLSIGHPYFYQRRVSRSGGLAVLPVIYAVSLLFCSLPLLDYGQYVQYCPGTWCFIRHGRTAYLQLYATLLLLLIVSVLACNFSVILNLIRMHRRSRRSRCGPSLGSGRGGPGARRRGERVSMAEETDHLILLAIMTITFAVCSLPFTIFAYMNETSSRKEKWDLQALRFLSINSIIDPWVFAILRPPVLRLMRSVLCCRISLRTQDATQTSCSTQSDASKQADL
Experimental: as §4, §5, §6, §7

Beagle dogs [1] = assay: Intraocular pressure in dogs (pneumatonometry); assay type: in vivo; settings: 0.005% topical 25 μL drop, 5 day study
Experimental: (§8) Intraocular pressure studies in dogs involved pneumatonometry performed in conscious, Beagle dogs of both sexes (10-15 kg). The animals remained conscious throughout the study and were gently restrained by hand. Drugs were administered topically to one eye as a 25 μL volume drop, the other eye received 25 μL vehicle (0.1% polysorbate 80:10 mM TRIS) as a control. Proparacaine (0.1%) was used for corneal anesthesia during tonometry. Intraocular pressure was determined just before drug administration and at 2, 4 and 6 hr thereafter on each day of the 5 day study. Drug was administered immediately after the first IOP reading.

Beagle dogs [2] = assay: Ocular surface hyperemia in dogs; assay type: in vivo; settings: 0.005% topical, score 0.5 trace, 1 mild, 2 moderate, 3 severe
Experimental: as §8
(§9) Ocular surface hyperemia was visually assessed and scored according to a system typically used clinically.
(§10) Ocular surface hyperemia was evaluated at the same time points as intraocular pressure measurement. It should be noted that untreated dog eyes frequently have a pink/red tone. Thus, values of trace or even mild are not necessarily out of the normal range. A similar procedure was used to determine rabbit hyperemia.

cynomolgus monkeys = assay: Intraocular pressure in cynomolgus monkeys; assay type: in vivo; settings: 0.005% topical, single dose
Experimental: as §8
An analogous procedure was carried out with cynomolgus monkeys with measurements at 2, 4, 6, and 24 hours after a single dose.

rabbit = assay: Ocular surface hyperemia in rabbits; assay type: in vivo; settings: 0.005%, score 0.5 trace, 1 mild, 2 moderate, 3 severe
Experimental: as §9, §10

T1 sequence (P43116 whole entry): as above

Row | Ki (EP2 receptor) | Ki (EP4 receptor) | EC50 (hEP4/Gqs5) | EC50 (hEP3A/Gqi5) | EC50 (hEP2/Gqs5) | Dog Max Hyperemia (Beagle dogs [2]) | Rabbit Max Hyperemia (rabbit) | SMILES | Dog Max ΔIOP (Beagle dogs [1]) | Monkey Max ΔIOP (cynomolgus monkeys)
1 | 36.2 µM | 1.24 µM | 0.0163 µM | 1.02 µM | – | – | – | CC1(C)C(=O)[C@H](CC#CCCCC(=O)O)[C@@H](/C=C/C(O)CCc2ccc3ccccc3c2)[C@@H]1O (single isomer, unassigned) [drawing 25] | – | –
2 | – | 1.86 µM | 0.008 µM | – | > 10 µM | – | – | CC1(C)C(=O)[C@H](CC#CCCCC(=O)O)[C@@H](/C=C/C(O)CCc2ccc3ccccc3c2)[C@@H]1O (single isomer, unassigned) [drawing 26] | – | –

More lines, now with the values behind:

Row | SMILES | Ki (EP2 receptor) | Ki (EP4 receptor) | EC50 (hEP4/Gqs5) | EC50 (hEP3A/Gqi5) | EC50 (hEP2/Gqs5) | Dog Max Hyperemia (Beagle dogs [2]) | Rabbit Max Hyperemia (rabbit) | Dog Max ΔIOP (Beagle dogs [1]) | Monkey Max ΔIOP (cynomolgus monkeys)
3 | CC1(C)C(=O)[C@H](C/C=C\CCCC(=O)O)[C@@H](/C=C/C(O)CCc2ccc3ccccc3c2)[C@@H]1O (single isomer, unassigned) [drawing 24] | 16.9 µM | 0.111 µM | 0.0013 µM | 1.02 µM | > 10 µM | – | – | – | –
4 | CC1(C)C(=O)[C@H](C/C=C\CCCC(=O)O)[C@@H](/C=C/C(O)CCc2ccc3ccccc3c2)[C@@H]1O (stereo partly drawn) | – | – | – | – | – | 1.3 | 0.1 | 2 mm Hg | 8 mm Hg
5 | CC1(C)C(=O)[C@H](C/C=C\CCCC(=O)O)[C@@H](/C=C/C(O)CCc2ccc3ccccc3c2)[C@@H]1O (single isomer, unassigned) [drawing 23] | > 10 µM | 0.014 µM | 0.00017 µM | 4.02 µM | > 10 µM | – | – | – | –
